Reference: patent US20100160304A1, “AROMATIC SULFONE COMPOUND AS ALDOSTERONE RECEPTOR MODULATOR” (Dainippon Sumitomo Pharma Co., Ltd, priority 2005, published 2010)

Molecular target: T1, aldosterone receptor MR (Rattus norvegicus, UniProt P22199)
T1 construct: the resultant supernatant was being a soluble fraction of the kidney; from tissue; host or cells: kidney of adrenalectomized rat, 105,000 G supernatant (soluble fraction)
T1 sequence (P22199 1-981): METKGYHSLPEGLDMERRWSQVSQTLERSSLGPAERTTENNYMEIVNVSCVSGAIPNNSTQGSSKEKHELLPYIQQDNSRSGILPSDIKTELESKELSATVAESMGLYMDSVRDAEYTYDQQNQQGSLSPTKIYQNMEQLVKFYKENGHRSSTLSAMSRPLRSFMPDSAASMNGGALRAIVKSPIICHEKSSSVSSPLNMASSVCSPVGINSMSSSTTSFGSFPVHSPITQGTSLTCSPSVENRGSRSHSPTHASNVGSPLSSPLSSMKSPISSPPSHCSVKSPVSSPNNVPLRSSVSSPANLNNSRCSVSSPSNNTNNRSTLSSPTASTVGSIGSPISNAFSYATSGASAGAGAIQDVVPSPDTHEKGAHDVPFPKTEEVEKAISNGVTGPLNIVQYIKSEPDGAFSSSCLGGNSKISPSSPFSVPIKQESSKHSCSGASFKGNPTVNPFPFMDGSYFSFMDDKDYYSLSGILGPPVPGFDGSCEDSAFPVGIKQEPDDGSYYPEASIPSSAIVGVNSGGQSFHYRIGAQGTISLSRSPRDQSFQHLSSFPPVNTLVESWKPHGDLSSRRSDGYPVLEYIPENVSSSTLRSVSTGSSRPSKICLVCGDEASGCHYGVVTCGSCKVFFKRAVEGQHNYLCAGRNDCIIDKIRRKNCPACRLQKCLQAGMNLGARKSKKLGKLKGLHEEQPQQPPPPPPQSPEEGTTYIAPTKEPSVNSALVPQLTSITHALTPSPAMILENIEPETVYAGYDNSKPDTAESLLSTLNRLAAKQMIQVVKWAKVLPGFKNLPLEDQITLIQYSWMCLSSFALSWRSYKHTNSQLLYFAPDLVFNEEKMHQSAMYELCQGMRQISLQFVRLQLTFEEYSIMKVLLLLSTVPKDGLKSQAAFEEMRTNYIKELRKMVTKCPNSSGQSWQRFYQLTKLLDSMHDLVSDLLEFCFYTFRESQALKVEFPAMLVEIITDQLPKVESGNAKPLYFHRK
Experiment: Aldosterone receptor binding assay ([3H]aldosterone, soluble fraction of rat kidney)
Conditions: [3H]aldosterone 2 nM, 2 μM RU-486, 4° C. about 18 hours
Method: Flank incision (both sides) was subjected to a rat to adrenalectomize. After suturing the rat's incised parts, the rat was again returned to a breeding cage and bred for a duration of 3 to 5 days to collect a kidney from the rat; the collected kidney was homogenized with 0.1 M Tris-HCl, 0.25M sucrose, 0.1M Na2MoO4, 2 mM DTT buffer solution (pH 7.4), the resultant solution was subjected to centrifugal separation at 105,000 G for 30 minutes, and the resultant supernatant was being a soluble fraction of the kidney.
Thereafter, the reactant solution was added with 50 μL of 5% dextran coated charcoal and mixed, and then centrifugated at 3,000 G for 5 minutes. Subsequently, 100 μL of the supernatant was collected and mixed with 3.5 mL of liquid scintillator ACS-II (Amersham) to measure a radioactivity with a liquid scintillation counter (manufactured by Packard, Tri Carb 2700TR). A non-specific binding was determined by adding 2 μM of aldosterone to the reactant solution.
Binding inhibiting rate (%)=10−[(B−N)/(B0−N)]×100
B: Binding amount of the marker ligand in the co-presence of the tested substance and marker ligand,
B0: Binding amount of the marker ligand in the absence of the tested substance, and
N: Binding amount of the marker ligand in the presence of excess aldosterone (2 μM).

Row | SMILES | IC50
1 | Cc1ccc(S(=O)(=O)Oc2ccc3c(c2)C(C)(C)OC(=S)N3)cc1 [Example 2, 4,4-Dimethyl-2-thioxo-1,4-dihydro-2H-3,1-benzoxazin-6-yl 4-methylbenzenesulfonate] | 320 nM
2 | CC1(C)OC(=S)Nc2ccc(OS(=O)(=O)c3cccs3)cc21 [Example 12, 4,4-Dimethyl-2-thioxo-1,4-dihydro-2H-3,1-benzoxazin-6-yl thiophene-2-sulfonate] | 83 nM
3 | CC1(C)OC(=S)Nc2ccc(OS(=O)(=O)c3ccc4ccccc4c3)cc21 [Example 14, 4,4-Dimethyl-2-thioxo-1,4-dihydro-2H-3,1-benzoxazin-6-yl naphthalene-2-sulfonate] | 470 nM
4 | CC1(C)OC(=S)Nc2ccc(CS(=O)(=O)c3ccccc3)cc21 [Example 18, 4,4-Dimethyl-6-[(phenylsulfonyl)methyl]-1,4-dihydro-2H-3,1-benzoxazin-2-thione] | 39 nM
5 | CC1(C)OC(=O)Nc2ccc(NS(=O)(=O)c3cccs3)cc21 [Example 23, N-(4,4-Dimethyl-2-oxo-1,4-dihydro-2H-3,1-benzoxazin-6-yl)thiophene-2-sulfonamide] | 2400 nM
6 | CC(=O)N(c1ccc2c(c1)C(C)(C)OC(=S)N2)S(=O)(=O)c1cccs1 [Example 26, N-(4,4-Dimethyl-2-thioxo-1,4-dihydro-2H-3,1-benzoxazin-6-yl)-N-(2-thienylsulfonyl)acetamide] | 15 nM
7 | CC1(C)OC(=S)Nc2ccc(NS(=O)(=O)c3ccsc3)cc21 [Example 28, N-(4,4-Dimethyl-2-thioxo-1,4-dihydro-2H-3,1-benzoxazin-6-yl)thiophene-3-sulfonamide] | 13 nM
8 | CC1(C)OC(=S)Nc2ccc(NS(=O)(=O)c3ccccc3F)cc21 [Example 29, N-(4,4-Dimethyl-2-thioxo-1,4-dihydro-2H-3,1-benzoxazin-6-yl)-2-fluorobenzenesulfonamide] | 1600 nM
9 | CC1(C)OC(=S)Nc2ccc(NS(=O)(=O)c3ccc(C(F)(F)F)cc3)cc21 [Example 30, N-(4,4-Dimethyl-2-thioxo-1,4-dihydro-2H-3,1-benzoxazin-6-yl)-4-(trifluoromethyl)benzenesulfonamide] | 160 nM
10 | CC1(C)OC(=S)Nc2ncc(CS(=O)(=O)c3cccs3)cc21 [Example 37, 4,4-Dimethyl-6-[(2-thienylsulfonyl)methyl]-1,4-dihydro-2H-pyrido[2,3-d][1,3]oxazin-2-thione] | 960 nM
11 | CC1(C)OC(=S)Nc2ncc(CS(=O)(=O)c3cccnc3)cc21 [Example 38, 4,4-Dimethyl-6-[(pyridine-3-ylsulfonyl)methyl]-1,4-dihydro-2H-pyrido[2,3-d][1,3]oxazin-2-thione] | 6600 nM
12 | CC1(C)OC(=S)Nc2ncc(NS(=O)(=O)c3cccs3)cc21 [Example 41, N-(4,4-Dimethyl-2-thioxo-1,4-dihydro-2H-pyrido[2,3-d][1,3]oxazin-6-yl)thiophene-2-sulfonamide] | 5500 nM
13 | O=S(=O)(Nc1ccc2c(c1)C(c1ccccc1)OC(=S)N2)c1cccs1 (stereo not drawn) [Example 44, N-(4-Phenyl-2-thioxo-1,4-dihydro-2H-3,1-benzoxazin-6-yl)thiophene-2-sulfonamide] | 860 nM
14 | C=CC1OC(=S)Nc2ccc(NS(=O)(=O)c3cccs3)cc21 (stereo not drawn) [Example 46, N-(2-Thioxo-4-vinyl-1,4-dihydro-2H-3,1-benzoxazin-6-yl)thiophene-2-sulfonamide] | 2900 nM
15 | C#CC1(C)OC(=S)Nc2ccc(NS(=O)(=O)c3cccs3)cc21 (stereo not drawn) [Example 48, N-(4-Ethynyl-4-methyl-2-thioxo-1,4-dihydro-2H-3,1-benzoxazin-6-yl)thiophene-2-sulfonamide] | 320 nM
16 | C=CC1(C)OC(=O)Nc2ccc(NS(=O)(=O)c3cccs3)cc21 (stereo not drawn) [Example 49, N-(4-Methyl-2-oxo-4-vinyl-1,4-dihydro-2H-3,1-benzoxazin-6-yl)thiophene-2-sulfonamide] | 2700 nM
17 | C=CC1(C)OC(=S)Nc2ccc(NS(=O)(=O)c3cccs3)cc21 (stereo not drawn) [Example 50, N-(4-Methyl-2-thioxo-4-vinyl-1,4-dihydro-2H-3,1-benzoxazin-6-yl)thiophene-2-sulfonamide] | 11 nM
18 | CC1=CC(C)(C)Nc2ccc(NS(=O)(=O)c3cccs3)cc21 [Example 62, N-(2,2,4-Trimethyl-1,2-dihydroquinolin-6-yl)thiophene-2-sulfonamide] | 130 nM

Other lines, results leading:

Row | IC50 | SMILES
19 | 7 nM | Cc1ccc(S(=O)(=O)Cc2ccc3c(c2)C(C)(C)OC(=S)N3)cc1 [Example 16, 4,4-Dimethyl-6-{[(4-methylphenyl)sulfonyl]methyl}-1,4-dihydro-2H-3,1-benzoxazin-2-thione]
20 | 210 nM | Cc1ccc(S(=O)(=O)Nc2ccc3c(c2)C(C)(C)OC(=S)N3)cc1 [Example 22, N-(4,4-Dimethyl-2-thioxo-1,4-dihydro-2H-3,1-benzoxazin-6-yl)-4-methylbenzenesulfonamide]
21 | 1300 nM | Cc1ccc(S(=O)(=O)Cc2cnc3c(c2)C(C)(C)OC(=S)N3)cc1 [Example 36, 4,4-Dimethyl-6-{[(4-methylphenyl)sulfonyl]methyl}-1,4-dihydro-2H-pyrido[2,3-d][1,3]oxazin-2-thione]
22 | 300 nM | CC1=CC(C)(C)Nc2ccc(OS(=O)(=O)c3ccc(C)cc3)cc21 [Example 51, 2,2,4-Trimethyl-1,2-dihydroquinolin-6-yl 4-methylbenzenesulfonate]
23 | 730 nM | CC1=CC(C)(C)Nc2ccc(OS(=O)(=O)c3ccc4ccccc4c3)cc21 [Example 52, 2,2,4-Trimethyl-1,2-dihydroquinolin-6-yl naphthalene-2-sulfonate]
24 | 200 nM | CC1=CC(C)(C)Nc2cc(F)c(OS(=O)(=O)c3ccc(C)cc3)cc21 [Example 54, 7-Fluoro-2,2,4-trimethyl-1,2-dihydroquinolin-6-yl 4-methylbenzenesulfonate]
25 | 29 nM | CC1=CC(C)(C)Nc2ccc(CS(=O)(=O)c3ccc(C)cc3)cc21 [Example 57, 2,2,4-Trimethyl-6-{[(4-methylphenyl)sulfonyl]methy}-1,2-dihydroquinoline]
26 | 300 nM | CC1=CC(C)(C)Nc2ccc(NS(=O)(=O)c3ccc(C)cc3)cc21 [Example 60, 4-Methyl-N-(2,2,4-trimethyl-1,2-dihydroquinolin-6-yl)benzenesulfonamide]
27 | 520 nM | CC1=CC(C)(C)Nc2ccc(NS(=O)(=O)c3ccc4ccccc4c3)cc21 [Example 61, N-(2,2,4-Trimethyl-1,2-dihydroquinolin-6-yl)naphthalene-2-sulfonamide]
28 | 360 nM | CC1=CC(C)(C)Nc2ccc(NS(=O)(=O)c3ccccc3)cc21 [Example 63, N-(2,2,4-Trimethyl-1,2-dihydroquinolin-6-yl)benzenesulfonamide]
29 | 1300 nM | CC1=CC(C)(C)Nc2ccc(NS(=O)(=O)c3ccc(Cl)s3)cc21 [Example 66, 5-Chloro-N-(2,2,4-trimethyl-1,2-dihydroquinolin-6-yl)thiophene-2-sulfonamide]
30 | 600 nM | CC1=CC(C)(C)Nc2ccc(NS(=O)(=O)c3ccccc3F)cc21 [Example 67, 2-Fluoro-N-(2,2,4-trimethyl-1,2-dihydroquinolin-6-yl)benzenesulfonamide]
31 | 1500 nM | CC1=CC(C)(C)Nc2ccc(NS(=O)(=O)c3cccc(F)c3)cc21 [Example 68, 3-Fluoro-N-(2,2,4-trimethyl-1,2-dihydroquinolin-6-yl)benzenesulfonamide]
32 | 1200 nM | CC1=CC(C)(C)Nc2ccc(NS(=O)(=O)c3ccc(F)cc3)cc21 [Example 69, 4-Fluoro-N-(2,2,4-trimethyl-1,2-dihydroquinolin-6-yl)benzenesulfonamide]
33 | 300 nM | CC1=CC(C)(C)Nc2ccc(NS(=O)(=O)c3ccc(C(F)(F)F)cc3)cc21 [Example 70, 4-(Trifluoromethyl)-N-(2,2,4-trimethyl-1,2-dihydroquinolin-6-yl)benzenesulfonamide]
